According to patent US4448717A, “Pharmacologically active peptides” (Eli Lilly and Company, priority 1982, dated 1984):

How the values were obtained:
mouse (Harlan ND4) = assay: mouse hot plate test (mouse jump); assay type: in vivo; details: subcutaneous injection, 15 minutes after administration, hot plate 55° C., dose producing analgesia in 50% of mice
Procedure: In this test, an upright acrylic cylinder comprising, as its base, a hot plate surface which is maintained at 55° C. is used. A mouse (Harlan ND4) is given, by subcutaneous injection, a predetermined amount of test compound dissolved or suspended in a suitable carrier, and, 15 minutes after administration of the test compound, the mouse is placed on the hot plate surface. The latency in seconds until the mouse jumps from the hot plate surface is measured. […] This must occur in a dose range which produces no motor incoordination or incapacitation. The following Table records ED50 results obtained from this test. By the term "ED50 " is meant that dose which produces analgesia in 50% of the mice tested. Analgesia is defined as a response latency in the presence of test compound that is equal to or greater than the control response latency plus two standard deviations. The percent analgesia data are converted to probits, and the ED50 is calculated by regression analysis of the dose-response data. Each dose response curve must have at least four points, and each point is determined using data from a minimum of ten treated mice and ten control mice.

enkephalin (δ) receptor = target: T1, enkephalin (δ) receptor (Mus musculus, UniProt P32300); assay: mouse vas deferens assay; assay type: cell-based; details: depression of 50% of the electrically evoked contraction, field stimulation 0.15 Hz, 37° C.
T1 construct: from tissue; host or cells: mouse vas deferens (Harlan ND4 mice)
Procedure: In the mouse vas deferens test, single mouse vas deferens from mature mice (Harlan ND4, 30-40 g.) are suspended in 3 ml. of modified Kreb's solution aerated with 95% O2 -5% CO2 and maintained at 37° C. The twitch induced by field stimulation (0.15 Hz, 1 msec., 40V) is recorded on a polygraph via an isometric transducer. The test compound is added to the bath in 20 to 30 μl. aliquots. A dose-response curve is constructed by cumulative addition of appropriate amounts of the compound to the bath. Comparison of relative agonist potency at the δ receptor is made on the basis of IC50 values (concentration causing depression of 50% of the electrically evoked contraction).
The Table following also provides results for compounds of this invention when tested in the mouse vas deferens assay.

mice = details: cited from earlier work

T1 sequence (P32300 whole entry): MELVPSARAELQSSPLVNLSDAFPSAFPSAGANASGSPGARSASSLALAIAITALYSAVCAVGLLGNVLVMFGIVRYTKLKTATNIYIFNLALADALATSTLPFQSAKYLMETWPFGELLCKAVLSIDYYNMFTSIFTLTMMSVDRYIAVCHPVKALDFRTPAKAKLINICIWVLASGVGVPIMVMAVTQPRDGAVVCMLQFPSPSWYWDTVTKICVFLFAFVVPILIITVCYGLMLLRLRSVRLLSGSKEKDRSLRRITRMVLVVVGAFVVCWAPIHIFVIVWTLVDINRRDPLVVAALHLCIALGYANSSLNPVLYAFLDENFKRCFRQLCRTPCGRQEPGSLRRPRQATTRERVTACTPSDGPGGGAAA

Compound | Mouse Jump ED50 (mouse (Harlan ND4)) | IC50 (enkephalin (δ) receptor) | analgesic activity when administered parenterally (mice)
CC(=O)C(Cc1ccccc1)NC(=O)CNC(=O)[C@@H](C)NC(=O)[C@@H](N)Cc1ccc(O)cc1 (stereo partly drawn) [Example 1, L-Tyrosyl-D-alanyl-N-(2-oxo-1-benzylpropyl)glycinamide] | 3.2 mg/kg | 0.49 nM | –
CCN(C(=O)CNC(=O)[C@@H](C)NC(=O)[C@@H](N)Cc1ccc(O)cc1)[C@@H](Cc1ccccc1)C(C)=O [Example 2, L-Tyrosyl-D-alanyl-N-ethyl-N-(2-oxo-1-benzylpropyl)glycinamide] | 0.006 mg/kg | 0.71 nM | –
H-Tyr-Gly-Gly-Phe-Met-OH [methionine enkephalin] | – | – | practically devoid of any useful analgesic activity
